Earlier results, collected in patent publication US20130210878A1, “BENDAMUSTINE COMPOSITIONS AND METHODS THEREFORE” (Innopharma, Inc., priority 2012, published 2013).
Read-outs that look alike come from different tables or passages of the source.

Conditions: 0.25 mg/ml in 0.9% sodium chloride

## Cl.Cn1c(CCCC(=O)O)nc2cc(N(CCCl)CCCl)ccc21 [Bendamustine HCl, 1H-benzimidazole-2-butanoic acid, 5-[bis(2-chloro-ethyl)amino]-1 methyl-, monohydrochloride]
4° C.
  time stable: 4 days
23° C.
  time stable: 0.38 days
